Assay results reported in patent US20130225671A1, “Methods of Treating Seizure Disorders” (Massachusetts Institute of Technology, priority 2010, published 2013).
“Also recorded” adds a separate entry of the source. Marks after values point to notes of the source that are not given here.

Key:
Fmr1 KO mouse = test: Audiogenic seizures (AGS) in Fmr1 KO and WT mice;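 as to all read-outs here: male WT and Fmr1 KO littermates aged P17-25 given a 2 min seizure-provoking stimulus, scored blind to genotype for wild running, clonic and tonic seizures and death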; conditions: for AGS incidence: 1 h, vehicle KO about 74%; for incidence of AGS: Example 1, vehicle KO 73%; for incidence of AGS / Clonic seizure incidence / Death incidence / Tonic seizure incidence / WR (wild running) incidence: i.p. 100 mg/kg SL 327 or 30 mg/kg Formula I; for Clonic seizure incidence / Death incidence / Tonic seizure incidence / WR (wild running) incidence: 1 h before stimulus
Method: One hour later, mice were exposed to a seizure-inducing stimulus for 2 minutes, and scored for four stages of AGS: wild running (WR; pronounced, undirected running and thrashing), clonic seizure (violent spasms accompanied by loss of balance), tonic seizure (postural rigidity in limbs), and death [35, 37, 39]. All animals were injected and scored blind to genotype.
AGS: Experiments were performed using male WT and Fmr1 KO littermates (P17-25) as described herein. […] Immediately prior to testing, mice were transferred to a quiet (about <60 dB ambient sound) room for 1 hour. Mice were then transferred to a transparent plastic test chamber and, after 1 minute of habituation, exposed to a 130 dB stimulus (recorded sampling of a modified personal alarm, RADIOSHACK model 49-1010) for about 2 minutes. Each testing session contained mice from both genotype and treatment groups. For each group, incidence of the following stages of AGS was calculated: wild running (WR; pronounced, undirected running and thRashing), clonic seizure (violent spasms accompanied by loss of balance), tonic seizure (postural rigidity in limbs), and death. All aspects of the experiments were performed blind to genotype.
For each mouse, four stages of increasing AGS severity were scored: wild running, clonic seizure, tonic seizure, or death[16].

ERK1/2 = ERK1/2 activation (phosphorylation) in hippocampal slices, immunoblotting; format: cell-based, mouse; conditions: for ERK1/2 activation (phosphorylation; WT veh = 100%): 1 hour
Ras = Ras activation assay (Ras-GTP pull-down) in hippocampal slices; format: cell-based, mouse
Method: Ras activation assay: Slices (4-6 per animal) were prepared exactly as for metabolic labeling, and Ras-GTP isolated using the Active Ras Pull-Down and Detection kit (PIERCE) according to manufacturer's instructions.
Active (GTP-bound) Ras was isolated from homogenized slices using a GST-pull down assay, and compared to total Ras.

[1] = tested on: protein synthesis in WT and Fmr1 KO hippocampal slices; test: Protein synthesis in hippocampal slices (35S-Met/Cys metabolic labeling); format: cell-based, mouse
Method: Dorsal hippocampal slices were prepared from juvenile (postnatal day 25-32) WT and Fmr1 KO mice using the same metabolic labeling procedure described in [35]. Briefly, 500 μm slices were recovered in carbogenating, 32.5° C. ACSF (in mM: NaCl: 124, KCl: 3, NaH2PO4: 1.25, NaHCO3: 26, dextrose: 10, MgCl2: 1, CaCl2: 2, saturated with 95% O2 and 5% CO2), pre-incubated in actinomycin D (ActD, 25 μM) for 30 min to prevent transcription, and protein synthesis measured over 30 minutes via incorporation of a ^35S-labeled methionine/cysteine mix (^35S-Met/Cys).
Group I mGluR activate several signal pathways.
Mice: Fmr1 KO (Jackson Labs) and WT littermates, bred on the C57BL6 or FVB background strains, were group housed and maintained in a 12:12 h light:dark cycle. An In vitro hippocampal slice assay was used herein to recapitulate the exaggerated protein synthesis phenotype seen in the Fmr1 KO[6].
Metabolic labeling: Experiments were performed on male WT and Fmr1 KO mice (postnatal day 25-32), blind to genotype, as described herein. Briefly, 500 μm slices were recovered for 4 h in 32.5° C. […] After labeling, slices were homogenized, and labeled proteins isolated by TCA precipitation. Samples were read with a scintillation counter and also subjected to a protein concentration assay (BIO-RAD). Final data were expressed as counts per minute (CPM) per μg protein, normalized to the ^35S-Met/Cys ACSF used for incubation, and the average incorporation of all samples analyzed in that experiment.

TNF-α = conditions: human whole blood, TPA-induced; cited from earlier work
IL-1β = conditions: human whole blood, TPA-induced; cited from earlier work
25 receptors = conditions: cited from earlier work
Malme-3M pERK = conditions: Malme-3M cells; cited from earlier work
[2] = tested on: rat adjuvant-induced arthritis; conditions: PO, QD×7; cited from earlier work
MEK = conditions: read-out: MEK Enzyme IC50; cited from earlier work
[3] = tested on: Rat carrageenan paw edema; conditions: PO, once; cited from earlier work
~200 other kinases = ~200 other kinases at 1 μM; cited from earlier work
[4] = tested on: Cytochrome p450 (5 major isoforms); conditions: read-out: Cytochrome p450 Inhibition-IC50; cited from earlier work
[5] = tested on: Rat Collagen-Induced Arthritis; conditions: PO, QD×7; cited from earlier work
IL-6 = conditions: human whole blood, TPA-induced; cited from earlier work
[6] = Fmr1 KO mice, C57BL6, 30 mg/kg Formula I acid i.p.
[7] = Fmr1 KO hippocampal slices, 10 μM Formula I
[8] = Fmr1 KO hippocampal slices, 50 μM Formula I
[9] = Fmr1 KO hippocampal slices, 100 μM Formula I in lactone form (Example 1)
[10] = Fmr1 KO hippocampal slices, 100 μM Formula I in lactone form (Example 1), listed as LOVASTATIN
[11] = WT hippocampal slices, 10 μM Formula I
[12] = WT hippocampal slices, 50 μM Formula I
[13] = WT hippocampal slices, 5 μM U0126

For CC[C@H](C)C(=O)O[C@H]1C[C@@H](C)C=C2C=C[C@H](C)[C@H](CC[C@@H]3C[C@@H](O)CC(=O)O3)[C@H]21 [Formula I, (1S,3R,7S,8S,8aR)-8-{2-[(2R,4R)-4-hydroxy-6-oxooxan-2-yl]ethyl}-3,7-dimethyl-1,2,3,7,8,8a-hexahydronaphthalen-1-yl-(2S)-2-methylbutanoate], the “AGS severity (distribution of AGS scores)” value (shortened to “AGS severity”) (Fmr1 KO mouse; [6]) was “significantly lessens the severity of seizures”, the AGS incidence (Fmr1 KO mouse; [6]) was “about 28%” and the “AGS severity” value (Fmr1 KO mouse; Fmr1 KO mice, C57BL6, 30 mg/kg Formula I lactone i.p.) was “significantly reduces AGS severity”. The “AGS severity” value (Fmr1 KO mouse; Fmr1 KO mice, C57BL6, 100 mg/kg Formula I acid i.p.) was “attenuates AGS severity”, the “AGS severity” value (Fmr1 KO mouse; Fmr1 KO mice, C57BL6, oral, 48 h feeding of 0.1% Formula I chow) was “significantly reduces AGS severity” and the “incidence of AGS” value (Fmr1 KO mouse; Fmr1 KO mice) was 21%. For the same compound, the “AGS severity” value (Fmr1 KO mouse; Fmr1 KO mice, FVB, 30 mg/kg Formula I i.p., 30 mg/kg) was “similarly unaffected; also recorded: does not significantly reduce AGS severity”, the “AGS severity” value (Fmr1 KO mouse; Fmr1 KO mice, FVB, 100 mg/kg Formula I i.p., 100 mg/kg) was “significantly reduces AGS severity” and the Clonic seizure incidence (Fmr1 KO mouse; Fmr1 KO mice) was 12%*. For the same compound, the Death incidence (Fmr1 KO mouse; Fmr1 KO mice) was 8%, the Tonic seizure incidence (Fmr1 KO mouse; Fmr1 KO mice) was 6%* and the “WR (wild running) incidence” value (Fmr1 KO mouse; Fmr1 KO mice) was 21%*. It also gave a Clonic seizure incidence (Fmr1 KO mouse; WT mice) of 8%*, a Death incidence (Fmr1 KO mouse; WT mice) of 8% and a Tonic seizure incidence (Fmr1 KO mouse; WT mice) of 8%. The “WR (wild running) incidence” value (Fmr1 KO mouse; WT mice) was 13%**, the “ERK1/2 activation (phosphorylation; WT veh = 100%)” value (ERK1/2; [7]) was 90±6% and the “ERK1/2 activation (phosphorylation; WT veh = 100%)” value (ERK1/2; [8]) was 78±5%. For the same compound, the “ERK1/2 activation (WT vehicle = 100%)” value (ERK1/2; [9]) was 181±6%, the “ERK1/2 activation (WT vehicle = 100%)” value (ERK1/2; [10]) was “reduce ERK1/2 activation” and the “ERK1/2 activation (phosphorylation; WT veh = 100%)” value (ERK1/2; [11]) was 94±8%. For the same compound, the “ERK1/2 activation (phosphorylation; WT veh = 100%)” value (ERK1/2; [12]) was 84±5%, the “ERK1/2 activation (WT vehicle = 100%)” value (ERK1/2; WT hippocampal slices, 100 μM Formula I in lactone form (Example 1)) was 187±6% and the “ERK1/2 in hippocampal slices (in words)” value (ERK1/2; hippocampal slices, Formula I acid form, FIGS. 2F and 2G) was “downregulates ERK1/2”. The “active (GTP-bound) Ras compared to total Ras (WT veh = 100%)” value (“active (GTP-bound) Ras … (WT veh = 100%)” below) (Ras; [7]) was 89±8%, the “active (GTP-bound) Ras … (WT veh = 100%)” value (Ras; [8]) was 61±9% and the “active (GTP-bound) Ras … (WT veh = 100%)” value (Ras; [11]) was 87±14%. The “active (GTP-bound) Ras … (WT veh = 100%)” value (Ras; [12]) was 61±12%, the “Ras activation in hippocampal slices (in words)” value (Ras; hippocampal slices, Formula I acid form, FIGS. 2D and 2E) was “inhibits Ras activation” and the “protein synthesis (WT veh = 100%)” value ([1]; Fmr1 KO hippocampal slices, 10 μM Formula I (acid form, Example 2)) was 115±7%. For the same compound, the “protein synthesis (WT vehicle = 100%)” value [1, 9] was 104±2%, the “protein synthesis (WT vehicle = 100%)” value [1, 10] was “can correct protein synthesis” and the “protein synthesis (WT veh = 100%)” value ([1]; WT hippocampal slices, 10 μM Formula I (acid form, Example 2)) was 103±4%. The “protein synthesis (WT veh = 100%)” value ([1]; WT hippocampal slices, 50 μM Formula I (acid form, Example 2)) was 88±5%.
In the case of Cn1cnc2c(F)c(Nc3ccc(Br)cc3F)c(C(=O)NOCCO)cc21 [ARRY-162], the IC50 (TNF-α) is given as 23 nM, the IC50 (IL-1β) is given as 21 nM and the receptor screen (25 receptors) is given as “clean”. The IC50 (Malme-3M pERK) was 11 nM, the “rat adjuvant-induced arthritis ED50” value [2] was 10 mg/kg and the IC50 (MEK) was 12 nM. For the same compound, the “Rat carrageenan paw edema ED50” value [3] was roughly 7 mg/kg, the Kinase selectivity screen (~200 other kinases) was “no activity” and the IC50 [4] was greater than 25000 nM. For the same compound, the “Rat Collagen-Induced Arthritis ED50” value [5] was 3 mg/kg and the IC50 (IL-6) was 21 nM.
For N#CC(=C(N)Sc1ccccc1N)C(C#N)=C(N)Sc1ccccc1N [Formula U0126, 1,4-diamino-2,3-dicyano-1,4-bis[2-aminophenylthio]butadiene], the “ERK1/2 activation (WT vehicle = 100%)” value (ERK1/2; [13]) was 15±3% and the “protein synthesis (WT vehicle = 100%)” value [1, 13] was 94±6%.
With N#C/C(=C(\N)Sc1ccc(N)cc1)c1ccccc1C(F)(F)F [SL 327, alpha-[amino[(4-aminophenyl)thio]methylene]-2-(trifluoromethyl)benzeneacetonitrile] the “incidence of AGS” value (Fmr1 KO mouse; Fmr1 KO mice) was 0%, the Clonic seizure incidence (Fmr1 KO mouse; Fmr1 KO mice) was 0%* and the Death incidence (Fmr1 KO mouse; Fmr1 KO mice) was 0%. For the same compound, the Tonic seizure incidence (Fmr1 KO mouse; Fmr1 KO mice) was 0%*, the “WR (wild running) incidence” value (Fmr1 KO mouse; Fmr1 KO mice) was 0%* and the Clonic seizure incidence (Fmr1 KO mouse; WT mice) was 0%*. For the same compound, the Death incidence (Fmr1 KO mouse; WT mice) was 0%, the Tonic seizure incidence (Fmr1 KO mouse; WT mice) was 0% and the “WR (wild running) incidence” value (Fmr1 KO mouse; WT mice) was 0%*.
With CCC(C)C(=O)OC1CC(C)C=C2C=CC(C)C(CCC(O)CC(O)CC(=O)[O-])C21.[Na+] (stereo not drawn) [Formula I acid] the “AGS severity” value (Fmr1 KO mouse; [6]) was “attenuates AGS severity” and the AGS incidence (Fmr1 KO mouse; [6]) was “significantly reduces AGS incidence”.
In the case of Cc1cccc(C#Cc2ccccc2)n1 [MPEP], the “protein synthesis (WT vehicle = 100%)” value ([1]; Fmr1 KO hippocampal slices, 50 μM MPEP, 5 minutes) is reported as 95±2% and the “protein synthesis (WT vehicle = 100%)” value ([1]; WT hippocampal slices, 50 μM MPEP, 5 minutes) is reported as 104±2%.
